Laboratory results published in publication PMC3408453, “A Foldamer-Dendrimer Conjugate Neutralizes Synaptotoxic β-Amyloid Oligomers” (PLoS ONE, 2012).

Tests used:
Aβ oligomers = molecular target: T1, Aβ oligomers (Homo sapiens, UniProt P05067); experiment: Electronic circular dichroism of Aβ oligomer with ligand; conditions: 0.25 equivalents ligand with 36 μM Aβ
T1 construct: a depsipeptide derivative of Aβ(1–42) was utilized; made in house; host or cells: chemical peptide synthesis (no expression host)
From the text: The data on 7 were in agreement with its largely helical structure, also found via NMR. […] This was in accord with the NMR results obtained for the recognition segment 1. The secondary structure was probed also with ThT binding experiments (Figure 9B). Pure Aβ oligomers bound ThT at a certain level. This was in accord with the staining with antibody OC; both are capable of recognizing the fibrillar (or protofibrillar) oligomers. […] The latter process is similar to affinity precipitation.
(A) Observed ellipticities in ECD for 36 μM Aβ oligomer (thick black), 9 μM 7 (thin black), and 36 μM Aβ +9 μM 7 (thick dashed). The hypothetical sum of the ECD curves of the pure samples (thin dashed). (B) ThT binding experiment carried out on 36 µM oligomeric Aβ (white bars) and on 36 µM oligomeric Aβ +7 1∶1 mixtures. The relative fluorescence values were monitored up to 24 h.
CD spectra were measured on a Jasco J815 dichrograph in a 1.00 cm cell using PBS (pH = 7.4) as solvent. Three spectra were accumulated for each sample. The baseline spectrum recorded with only the solvent and it was subtracted from the raw data.

[1] = molecular target: T2, HMW fraction of Aβ oligomers (Homo sapiens, UniProt P05067); experiment: Concentration-dependent dot blot with SEC-separated HMW Aβ oligomer fraction; format: binding; conditions: 10 µg ligand spotted, BAM10 1∶500
T2 construct: a depsipeptide derivative of Aβ(1–42) was utilized; made in house; host or cells: chemical peptide synthesis (no expression host)
Method: (§1) ITC measurement for 7 indicated fractional stoichiometry for the low nM binding, which pointed to that the high affinity interaction involves only a fraction of the oligomeric Aβ sample. To localize the strongly binding fraction in the mixture, size exclusion chromatographic (SEC) separation was carried out and the resulting Aβ oligomer fractions were tested with 7 in concentration-dependent dot blot experiments. Two dominant peaks were found in the SEC chromatogram corresponding to the high molecular weight (HMW) and low molecular weight (LMW) components (Figure 7). […] In control experiments, specific and/or preferential binding of Aβ by the membrane itself were ruled out. These findings were in line with the ITC and ELISA results. It could be concluded that 7 preferentially bound to the LMW fraction at low nM concentration and also interacted with the HMW fraction at sub-µM level.
(§2) Figure 7 Selective binding to the LMW Aβ oligomers in the nM range. Size exclusion chromatographic separation of the HMW and LMW fractions of the Aβ oligomeric sample (top panel). Concentration-dependent dot blot experiments performed with the HMW (A) and the LMW fractions (B). The ligand loadings were 10 µg aliquots of 7, and the sequence specific antibody BAM10 (1∶500) was utilized. Lanes within the panels are parallel experiments. […]

[2] = molecular target: T3, Aβ oligomers (HMW and LMW fractions) (Homo sapiens, UniProt P05067); experiment: SEC analysis of Aβ oligomer – ligand mixtures (affinity precipitation); conditions: 50 µM Aβ oligomers, injected after filtration
T3 construct: a depsipeptide derivative of Aβ(1–42) was utilized; made in house; host or cells: chemical peptide synthesis (no expression host)
Method: This hypothesis was tested via SEC analysis (Figure 10A). Mixtures of 50 µM Aβ oligomers with 7 in 0.25 and 1.0 equivalents were injected on the SEC column after filtration. […] We concluded that the affinity precipitation occurs for the HMW component, but the LMW fraction is also affected at higher ligand concentrations. […] Thus it was possible to test if the LMW fraction co-elutes with 7. […] The HMW precipitate was also tested for the presence of 7 with LC-MS, and the result confirmed the heterocomplex nature of the product (Figure 10C).
Figure 10 Lower tendency of the LMW Aβ oligomer fraction to affinity precipitation. (A) SEC analysis of pure Aβ oligomers (black) and mixtures of 50 µM Aβ oligomers with 7 in 0.25 (green) and 1.0 (blue) equivalents. The samples were injected on the SEC column after filtration. […] (B) LC-MS results on the LMW fraction taken at 19 min. […] (C) LC-MS results on the HMW precipitate, which confirmed the heterocomplex nature of the product.
iso-Aβ(1–42) was dissolved in sodium hydrocarbonate buffered saline (pH 7.4) to 50 µM and incubated for 24 h at 37°C. The oligomeric Aβ was loaded onto an Äkta Purifier FPLC system (GE Healthcare, UK) equipped with a Superose 6 10 300 column. Sample was eluted at a flow rate of 0.5 ml/min. FPLC chromatogram was taken at 280 nm and 1 ml fractions were collected during the separation.

[3] = molecular target: T4, LMW fraction of Aβ oligomers (Homo sapiens, UniProt P05067); experiment: Concentration-dependent dot blot with SEC-separated LMW Aβ oligomer fraction; format: binding; conditions: 10 µg ligand spotted, BAM10 1∶500
T4 construct: a depsipeptide derivative of Aβ(1–42) was utilized; made in house; host or cells: chemical peptide synthesis (no expression host)
Method: as §1, §2

Structure (SMILES): N=C(N)NCCC[C@@H](CC(=O)N[C@H]1CCCC[C@@H]1C(=O)N[C@H]1CCCC[C@@H]1C(=O)N[C@@H](CC(=O)O)CC(=O)N[C@H]1CCCC[C@@H]1C(=O)NCC(=O)NCC(=O)N[C@@H](CSC1CC(=O)N(CCC(=O)NCCNC(=O)CCN(CCC(=O)NCCNC(=O)CCN2C(=O)CC(SC[C@H](NC(=O)CNC(=O)CNC(=O)[C@H]3CCCC[C@@H]3NC(=O)C[C@H](CC(=O)O)NC(=O)[C@H]3CCCC[C@@H]3NC(=O)[C@H]3CCCC[C@@H]3NC(=O)C[C@H](CCCNC(=N)N)NC(=O)[C@H]3CCCC[C@@H]3N)C(N)=O)C2=O)CCN(CCC(=O)NCCNC(=O)CCN2C(=O)CC(SC[C@H](NC(=O)CNC(=O)CNC(=O)[C@H]3CCCC[C@@H]3NC(=O)C[C@H](CC(=O)O)NC(=O)[C@H]3CCCC[C@@H]3NC(=O)[C@H]3CCCC[C@@H]3NC(=O)C[C@H](CCCNC(=N)N)NC(=O)[C@H]3CCCC[C@@H]3N)C(N)=O)C2=O)CCC(=O)NCCNC(=O)CCN2C(=O)CC(SC[C@H](NC(=O)CNC(=O)CNC(=O)[C@H]3CCCC[C@@H]3NC(=O)C[C@H](CC(=O)O)NC(=O)[C@H]3CCCC[C@@H]3NC(=O)[C@H]3CCCC[C@@H]3NC(=O)C[C@H](CCCNC(=N)N)NC(=O)[C@H]3CCCC[C@@H]3N)C(N)=O)C2=O)C1=O)C(N)=O)NC(=O)[C@H]1CCCC[C@@H]1N (some centres unmarked) [Compound 7]
- ECD: effect on β-sheet content of Aβ (Aβ oligomers): did not lead to an immediate increase in the β-sheet content
- Dot blot binding of HMW Aβ oligomer fraction [1]: stained with just below micromolar affinity
- SEC: effect on HMW and LMW Aβ fractions at 0.25 equivalents of ligand ([2]; 0.25 equivalents): the HMW fraction fully precipitated and disappeared from the SEC chromatogram, whereas the LMW fraction remained intact
- SEC: effect on HMW and LMW Aβ fractions at 1.0 equivalents of ligand ([2]; 1.0 equivalents): the HMW fraction again disappeared and a partial decrease was observed for the LMW fraction
- Dot blot binding of LMW Aβ oligomer fraction [3]: saturation of binding in the low nanomolar region
